Measured values from patent US11771709B2, “ALK protein degradation agent and anti-tumor application thereof” (ShanghaiTech University, priority 2017, dated 2023).

Assays:
Type in all cases: cell-based
SR (NPM-ALK) cells = experiment: Growth inhibition IC50 in ALCL SR cells (CCK8/WST, 72 hours); details: 72 h, SR cells, WST; Brigatinib-based PROTAD molecules (Table 3)
[1] = target: T1, ALK protein in SR (NPM-ALK) cells (Homo sapiens, UniProt Q9UM73); experiment: Western blot of ALK protein level (degradation, DC50), ALK phosphorylation and downstream signaling in SR cells; details: ALK protein degradation in SR cells
T1 construct: NPM (nucleophosmin, NPM1, P06748) fusion partner; host or cells: SR (ALCL) cells; the other entry of the earlier key: NPM1 (P06748, Nucleophosmin)
T1 sequence (Q9UM73 with tags, fused parts or gaps): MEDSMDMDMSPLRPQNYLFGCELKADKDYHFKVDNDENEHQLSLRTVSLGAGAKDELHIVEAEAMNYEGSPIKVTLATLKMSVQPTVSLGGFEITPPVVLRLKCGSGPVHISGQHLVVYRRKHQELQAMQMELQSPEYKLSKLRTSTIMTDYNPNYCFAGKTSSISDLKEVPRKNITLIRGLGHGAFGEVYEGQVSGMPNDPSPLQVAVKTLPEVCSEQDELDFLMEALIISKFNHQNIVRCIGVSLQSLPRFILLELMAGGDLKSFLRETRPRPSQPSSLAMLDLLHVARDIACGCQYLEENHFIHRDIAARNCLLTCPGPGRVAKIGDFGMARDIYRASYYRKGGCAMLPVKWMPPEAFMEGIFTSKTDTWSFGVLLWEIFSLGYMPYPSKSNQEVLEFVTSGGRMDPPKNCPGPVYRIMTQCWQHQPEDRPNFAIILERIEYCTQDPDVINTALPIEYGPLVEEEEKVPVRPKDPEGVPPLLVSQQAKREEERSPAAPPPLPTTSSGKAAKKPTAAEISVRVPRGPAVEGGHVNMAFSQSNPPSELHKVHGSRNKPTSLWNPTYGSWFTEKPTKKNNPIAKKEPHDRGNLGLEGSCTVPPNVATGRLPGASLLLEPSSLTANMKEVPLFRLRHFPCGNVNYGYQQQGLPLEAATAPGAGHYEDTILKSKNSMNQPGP

[2] = target: T2, ALK protein in H3122 (EML4-ALK) cells (Homo sapiens, UniProt Q9UM73); experiment: Western blot of ALK protein level (degradation, DC50), ALK phosphorylation and downstream signaling in H3122 cells; details: ALK protein degradation in H3122 cells
T2 construct: EML4 (Echinoderm microtubule-associated protein-like 4, Q9HC35) fusion partner, variant 1; host or cells: NCI-H3122 lung adenocarcinoma cells; the other entry of the earlier key: EML4 (Q9HC35, Echinoderm microtubule-associated protein-like 4)
T2 sequence (Q9UM73 with tags, fused parts or gaps): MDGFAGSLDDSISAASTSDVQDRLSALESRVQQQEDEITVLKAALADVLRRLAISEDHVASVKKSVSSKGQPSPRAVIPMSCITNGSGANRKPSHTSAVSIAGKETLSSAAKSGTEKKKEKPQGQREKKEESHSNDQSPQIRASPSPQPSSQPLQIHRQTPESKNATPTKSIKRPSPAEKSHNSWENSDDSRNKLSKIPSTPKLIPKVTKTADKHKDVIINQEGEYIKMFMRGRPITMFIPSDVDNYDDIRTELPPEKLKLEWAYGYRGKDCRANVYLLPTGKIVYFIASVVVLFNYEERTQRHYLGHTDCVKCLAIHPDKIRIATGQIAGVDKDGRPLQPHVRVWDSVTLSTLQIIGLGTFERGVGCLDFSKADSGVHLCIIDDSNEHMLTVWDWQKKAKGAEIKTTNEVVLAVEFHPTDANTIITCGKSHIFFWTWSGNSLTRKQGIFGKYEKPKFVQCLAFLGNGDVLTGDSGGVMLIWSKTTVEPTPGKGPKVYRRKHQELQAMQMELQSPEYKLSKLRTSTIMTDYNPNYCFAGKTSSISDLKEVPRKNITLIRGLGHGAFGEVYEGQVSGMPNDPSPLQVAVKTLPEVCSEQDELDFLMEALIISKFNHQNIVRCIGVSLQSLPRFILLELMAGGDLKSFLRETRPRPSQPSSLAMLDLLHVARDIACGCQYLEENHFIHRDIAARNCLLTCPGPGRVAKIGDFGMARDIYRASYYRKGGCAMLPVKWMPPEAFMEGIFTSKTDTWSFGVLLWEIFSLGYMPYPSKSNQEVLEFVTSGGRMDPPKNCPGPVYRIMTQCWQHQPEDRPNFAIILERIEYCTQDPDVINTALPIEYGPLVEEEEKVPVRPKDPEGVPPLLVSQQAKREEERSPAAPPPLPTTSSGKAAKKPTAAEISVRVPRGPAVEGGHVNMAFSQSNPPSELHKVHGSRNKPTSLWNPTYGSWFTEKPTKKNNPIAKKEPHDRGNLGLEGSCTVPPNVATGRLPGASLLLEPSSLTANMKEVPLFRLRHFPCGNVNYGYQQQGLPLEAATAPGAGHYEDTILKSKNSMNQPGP

| DC50 [1] | DC50 [2] | Compound | IC50 (SR (NPM-ALK) cells) |
| --- | --- | --- | --- |
| 1 to 50 nM | 1 to 50 nM | COc1cc(N2CCN(C(=O)CCCCCCC(=O)N[C@H](C(=O)N3C[C@H](O)C[C@H]3C(=O)NCc3ccc(-c4scnc4C)cc3)C(C)(C)C)CC2)ccc1Nc1ncc(Cl)c(Nc2ccccc2P(C)(C)=O)n1 [SIAIS1197153, (2S,4R)-1-((S)-2-(8-(4-(4-((5-chloro-4-((2-(dimethylphosphoryl)phenyl)amino)pyrimidin-2-yl)amino)-3-methoxyphenyl)piperazin-1-yl)-8-oxooctanamido)-3,3-dimethylbutanoyl)-4-hydroxy-N-(4-(4-methylthiazol-5-yl)benzyl)pyrrolidine-2-carboxamide] | 4.6 ± 1.9 nM |
| 1 to 10 nM | 1 to 50 nM | COc1cc(N2CCN(C(=O)CNc3cccc4c3C(=O)N(C3CCC(=O)NC3=O)C4=O)CC2)ccc1Nc1ncc(Cl)c(Nc2ccccc2P(C)(C)=O)n1 (stereo not drawn) [SIAIS1197055, 4-((2-(4-(4-((5-chloro-4-((2-(dimethylphosphoryl)phenyl)amino)pyrimidin-2-yl)amino)-3-methoxyphenyl)piperazin-1-yl)-2-oxoethyl)amino)-2-(2,6-dioxopiperidin-3-yl)isoindoline-1,3-dione] | ~1 nM |
| 100 to 500 nM | 100 to 500 nM | COc1cc(N2CCC(N3CCN(C(=O)CCOCCOCCOCCOCCOCCC(=O)N[C@H](C(=O)N4C[C@H](O)C[C@H]4C(=O)NCc4ccc(-c5scnc5C)cc4)C(C)(C)C)CC3)CC2)ccc1Nc1ncc(Cl)c(Nc2ccccc2P(C)(C)=O)n1 [SIAIS164035, (2S,4R)-1-((S)-2-(tert-butyl)-22-(4-(1-(4-((5-chloro-4-((2-(dimethylphosphoryl)phenyl)amino)pyrimidin-2-yl)amino)-3-methoxyphenyl)piperidin-4-yl)piperazin-1-yl)-4,22-dioxo-7,10,13,16,19-pentaoxa-3-azadocosanoyl)-4-hydroxy-N-(4-(4-methylthiazol-5-yl)benzyl)pyrrolidine-2-carboxamide] | 41.8 ± 24.7 nM |
| 0.5 to 10 nM | 1 to 50 nM | COc1cc(N2CCC(N3CCN(C(=O)CCCNc4cccc5c4C(=O)N(C4CCC(=O)NC4=O)C5=O)CC3)CC2)ccc1Nc1ncc(Cl)c(Nc2ccccc2P(C)(C)=O)n1 (stereo not drawn) [SIAIS164020, 4-((4-(4-(1-(4-((5-chloro-4-((2-(dimethylphosphoryl)phenyl)amino)pyrimidin-2-yl)amino)-3-methoxyphenyl)piperidin-4-yl)piperazin-1-yl)-4-oxobutyl)amino)-2-(2,6-dioxopiperidin-3-yl)isoindoline-1,3-dione] | 2.9 ± 1.5 nM |
| 1 to 10 nM | 10 to 20 nM | COc1cc(N2CCC(N3CCN(C(=O)CCNc4cccc5c4C(=O)N(C4CCC(=O)NC4=O)C5=O)CC3)CC2)ccc1Nc1ncc(Cl)c(Nc2ccccc2P(C)(C)=O)n1 (stereo not drawn) [SIAIS164019, 4-((3-(4-(1-(4-((5-chloro-4-((2-(dimethylphosphoryl)phenyl)amino)pyrimidin-2-yl)amino)-3-methoxyphenyl)piperidin-4-yl)piperazin-1-yl)-3-oxopropyl)amino)-2-(2,6-dioxopiperidin-3-yl)isoindoline-1,3-dione] | 9.6 ± 8 nM |
| 1 to 50 nM | 50 to 100 nM | COc1cc(N2CCC(N3CCN(C(=O)CCCCC(=O)N[C@H](C(=O)N4C[C@H](O)C[C@H]4C(=O)NCc4ccc(-c5scnc5C)cc4)C(C)(C)C)CC3)CC2)ccc1Nc1ncc(Cl)c(Nc2ccccc2P(C)(C)=O)n1 [SIAIS164122, (2S,4R)-1-((S)-2-(6-(4-(1-(4-((5-chloro-4-((2-(dimethylphosphoryl)phenyl)amino)pyrimidin-2-yl)amino)-3-methoxyphenyl)piperidin-4-yl)piperazin-1-yl)-6-oxohexanamido)-3,3-dimethylbutanoyl)-4-hydroxy-N-(4-(4-methylthiazol-5-yl)benzyl)pyrrolidine-2-carboxamide] | 12.1 ± 9.2 nM |
| 1 to 10 nM | 1 to 50 nM | COc1cc(N2CCN(C(=O)CCCCCCCCC(=O)N[C@H](C(=O)N3C[C@H](O)C[C@H]3C(=O)NCc3ccc(-c4scnc4C)cc3)C(C)(C)C)CC2)ccc1Nc1ncc(Cl)c(Nc2ccccc2P(C)(C)=O)n1 [SIAIS1197157, (2S,4R)-1-((S)-2-(10-(4-(4-((5-chloro-4-((2-(dimethylphosphoryl)phenyl)amino)pyrimidin-2-yl)amino)-3-methoxyphenyl)piperazin-1-yl)-10-oxodecanamido)-3,3-dimethylbutanoyl)-4-hydroxy-N-(4-(4-methylthiazol-5-yl)benzyl)pyrrolidine-2-carboxamide] | 3.1 ± 1.3 nM |
| 0.1 to 2 nM | 1 to 50 nM | COc1cc(N2CCC(NC(=O)CCCCCCNc3cccc4c3C(=O)N(C3CCC(=O)NC3=O)C4=O)CC2)ccc1Nc1ncc(Cl)c(Nc2ccccc2P(C)(C)=O)n1 (stereo not drawn) [SIAIS151123, N-(1-(4-((5-chloro-4-((2-(dimethylphosphoryl)phenyl)amino)pyrimidin-2-yl)amino)-3-methoxyphenyl)piperidin-4-yl)-7-((2-(2,6-dioxopiperidin-3-yl)-1,3-dioxoisoindolin-4-yl)amino)heptanamide] | 1.9 ± 1.5 nM |
| 1 to 10 nM | 50 to 100 nM | COc1cc(N2CCC(NC(=O)CCCCC(=O)N[C@H](C(=O)N3C[C@H](O)C[C@H]3C(=O)NCc3ccc(-c4scnc4C)cc3)C(C)(C)C)CC2)ccc1Nc1ncc(Cl)c(Nc2ccccc2P(C)(C)=O)n1 [SIAIS164145, N1-(1-(4-((5-chloro-4-((2-(dimethylphosphoryl)phenyl)amino)pyrimidin-2-yl)amino)-3-methoxyphenyl)piperidin-4-yl)-N6-((S)-1-((2S,4R)-4-hydroxy-2-((4-(4-methylthiazol-5-yl)benzyl)carbamoyl)pyrrolidin-1-yl)-3,3-dimethyl-1-oxobutan-2-yl)adipamide] | 10.3 ± 6.3 nM |
| 1 to 10 nM | 10 to 50 nM | COc1cc(N2CCC(N3CCN(C(=O)CCCCCCCC(=O)N[C@H](C(=O)N4C[C@H](O)C[C@H]4C(=O)NCc4ccc(-c5scnc5C)cc4)C(C)(C)C)CC3)CC2)ccc1Nc1ncc(Cl)c(Nc2ccccc2P(C)(C)=O)n1 [SIAIS164125, (2S,4R)-1-((S)-2-(9-(4-(1-(4-((5-chloro-4-((2-(dimethylphosphoryl)phenyl)amino)pyrimidin-2-yl)amino)-3-methoxyphenyl)piperidin-4-yl)piperazin-1-yl)-9-oxononanamido)-3,3-dimethylbutanoyl)-4-hydroxy-N-(4-(4-methylthiazol-5-yl)benzyl)pyrrolidine-2-carboxamide] | 9 ± 5.7 nM |
| 1 to 10 nM | 1 to 50 nM | COc1cc(N2CCN(C(=O)CCCCCCCC(=O)N[C@H](C(=O)N3C[C@H](O)C[C@H]3C(=O)NCc3ccc(-c4scnc4C)cc3)C(C)(C)C)CC2)ccc1Nc1ncc(Cl)c(Nc2ccccc2P(C)(C)=O)n1 [SIAIS1197155, (2S,4R)-1-((S)-2-(9-(4-(4-((5-chloro-4-((2-(dimethylphosphoryl)phenyl)amino)pyrimidin-2-yl)amino)-3-methoxyphenyl)piperazin-1-yl)-9-oxononanamido)-3,3-dimethylbutanoyl)-4-hydroxy-N-(4-(4-methylthiazol-5-yl)benzyl)pyrrolidine-2-carboxamide] | 3.4 ± 0.5 nM |
| 1 to 10 nM | 10 to 100 nM | COc1cc(N2CCC(N3CCN(C(=O)CCC(=O)N[C@H](C(=O)N4C[C@H](O)C[C@H]4C(=O)NCc4ccc(-c5scnc5C)cc4)C(C)(C)C)CC3)CC2)ccc1Nc1ncc(Cl)c(Nc2ccccc2P(C)(C)=O)n1 [SIAIS164120, (2S,4R)-1-((S)-2-(4-(4-(1-(4-((5-chloro-4-((2-(dimethylphosphoryl)phenyl)amino)pyrimidin-2-yl)amino)-3-methoxyphenyl)piperidin-4-yl)piperazin-1-yl)-4-oxobutanamido)-3,3-dimethylbutanoyl)-4-hydroxy-N-(4-(4-methylthiazol-5-yl)benzyl)pyrrolidine-2-carboxamide] | 19.2 ± 8.8 nM |
| – | 50 to 500 nM | COc1cc(N2CCN(C(=O)COCCOCC(=O)N[C@H](C(=O)N3C[C@H](O)C[C@H]3C(=O)NCc3ccc(-c4scnc4C)cc3)C(C)(C)C)CC2)ccc1Nc1ncc(Cl)c(Nc2ccccc2P(C)(C)=O)n1 [SIAIS1197087, (2S,4R)-1-((S)-2-(2-(2-(2-(4-(4-((5-chloro-4-((2-(dimethylphosphoryl)phenyl)amino)pyrimidin-2-yl)amino)-3-methoxyphenyl)piperazin-1-yl)-2-oxoethoxy)ethoxy)acetamido)-3,3-dimethylbutanoyl)-4-hydroxy-N-(4-(4-methylthiazol-5-yl)benzyl)pyrrolidine-2-carboxamide] | 10.6 ± 2.4 nM |
| – | 50 to 500 nM | COc1cc(N2CCN(C(=O)CCOCCOCCOCCOCCC(=O)N[C@H](C(=O)N3C[C@H](O)C[C@H]3C(=O)NCc3ccc(-c4scnc4C)cc3)C(C)(C)C)CC2)ccc1Nc1ncc(Cl)c(Nc2ccccc2P(C)(C)=O)n1 [SIAIS1197083, (2S,4R)-1-((S)-2-(tert-butyl)-19-(4-(4-((5-chloro-4-((2-(dimethylphosphoryl)phenyl)amino)pyrimidin-2-yl)amino)-3-methoxyphenyl)piperazin-1-yl)-4,19-dioxo-7,10,13,16-tetraoxa-3-azanonadecanoyl)-4-hydroxy-N-(4-(4-methylthiazol-5-yl)benzyl)pyrrolidine-2-carboxamide] | 49.9 ± 30.8 nM |
| – | 100 to 500 nM | COc1cc(N2CCN(C(=O)CCOCCNc3cccc4c3C(=O)N(C3CCC(=O)NC3=O)C4=O)CC2)ccc1Nc1ncc(Cl)c(Nc2ccccc2P(C)(C)=O)n1 (stereo not drawn) [SIAIS1197065, 4-((2-(3-(4-(4-((5-chloro-4-((2-(dimethylphosphoryl)phenyl)amino)pyrimidin-2-yl)amino)-3-methoxyphenyl)piperazin-1-yl)-3-oxopropoxy)ethyl)amino)-2-(2,6-dioxopiperidin-3-yl)isoindoline-1,3-dione] | 20.7 ± 14.9 nM |
